Measured values taken from publication PMC12716008 (Chemistry & Biodiversity, 2025).
≈ marks a conversion by molar mass, not a printed value. Like-named read-outs stand apart in the source and are kept apart here. Starred links: 1 amine or outer side, 2 acyl side, 3 side chain; linkers in the order of their positions; H or OH if unused. Positions of bridges follow the written chain, without caps; N, C: chain ends. Non-standard residues stand in square brackets, D forms with d. Residues, ends and D or L forms follow the SMILES beside them. Chains are numbered I, II in the order given. Actinocin(9to1) = Cc1c2oc3c(C)ccc(C(=O)[*:1])c3nc-2c(C(=O)[*:2])c(N)c1=O; NMeV = CN[C@H](C(=O)O)C(C)C; Sar = CNCC(=O)O

Assays:
[1] = test system: Mycobacterium smegmatis (MC^2 155); assay: Antimycobacterial activity, microtitre Alamar Blue/Presto Blue assay (MIC); type: cell-based; conditions: Mycolicibacterium smegmatis, read-out: M. smeg MIC
[2] = test system: M. smegmatis biofilm formation; assay: Mycobacterial biofilm inhibition, microtitre antibiofilm assay (MBIC); type: cell-based, Mycobacterium smegmatis; conditions: Mycolicibacterium smegmatis, 2–4 days, 37°C, read-out: M. smeg MBIC
[3] = test system: MRSA AH1263 or LAC biofilm formation; assay: Staphylococcal biofilm inhibition, crystal violet microtitre test (MBIC); type: cell-based; conditions: Staphylococcus aureus, 22 h, read-out: MRSA MBIC
[4] = test system: MSSA UAMS‐1 biofilm formation; assay: as above; type: cell-based; conditions: Staphylococcus aureus, 22 h, read-out: MSSA MBIC
[5] = test system: human monocyte (U937) cell line; assay: Cytotoxicity, Presto Blue cell viability; type: cell-based; conditions: U-937, 72 h
Description: (§1) The human monocyte (U937) and African green monkey kidney (Vero) cell lines were used in this study to determine the cytotoxic potential of the quinoline derivatives. The cell lines were purchased from Separation Scientific SA (Pty) Ltd. (Johannesburg, South Africa) and maintained in Roswell Park Memorial Institute (RPMI) 1640 and Eagle's Minimal Essential Medium (EMEM), supplemented with 10% heat‐inactivated foetal bovine serum (FBS), 1% antibiotics (100 U/mL penicillin and 100 µg/mL streptomycin) and 1% antifungal agent (250 µg/mL amphotericin B) as previously described. The cells were cultured at 37°C, 5% CO2 in a humidified incubator to 80% confluency. Detachment was achieved by rinsing the cells with phosphate buffer saline followed by the addition of trypsin–EDTA (0.25% trypsin containing 0.01% EDTA). After 5 min, the reaction was inhibited through the addition of supplemented media.
(§2) Cell viability was assessed through the method described by Lall et al., using Presto Blue as the viability reagent. The cells were seeded in a flat‐bottom 96‐well plate (100 µL) at a concentration of 1.0 × 10^6 cells/mL and allowed to adhere for 24 h. The samples were prepared in DMSO at a stock concentration of 20 mM, serially diluted in complete media and added to the plate at a final concentration range of 0.78–100 µM. Controls included a vehicle control (2% DMSO), an untreated cell control, a 0% control (no cells) and actinomycin D, as the positive control, at a final test concentration range of 3.9 × 10^−4 to 0.05 µg/mL. Cells were incubated for 72 h, followed by the addition of 20 µL of Presto Blue reagent to all the wells and an additional 2 h incubation. Cell viability was measured using a VICTOR Nivo Multimode Microplate Reader (PerkinElmer) at an excitation/emission wavelength of 540/590 nm.
(§3) All results are presented as the mean ± standard deviation (where applicable) of experiments done in triplicate and in two or three independent experiments (as stated in each methods section). Descriptive analysis was used to directly compare and rank the compounds and derivatives based on their activity in the biological assays. Additionally, by comparing the antibiofilm activity to the antibacterial activity and the antibacterial activity to the cytotoxicity, selectivity indices were used to assess the preferential activity of the compounds.

[6] = test system: African green monkey kidney (Vero) cell line; assay: Cytotoxicity, Presto Blue cell viability; type: cell-based; conditions: 72 h, read-out: Vero IC50 ± SD
Description: as §1, §2, §3

[7] = test system: Mycobacterium tuberculosis H37Rv (ATCC 27264); assay: Antimycobacterial activity, microtitre Alamar Blue/Presto Blue assay (MIC); type: cell-based; conditions: 120 h, read-out: M. tb MIC
[8] = test system: methicillin‐sensitive S. aureus (MSSA) UAMS‐1; assay: Antistaphylococcal activity, broth microdilution (MIC); type: cell-based; conditions: Staphylococcus aureus, read-out: MSSA MIC
[9] = test system: methicillin‐resistant S. aureus (MRSA) AH1263 or LAC; assay: as above; type: cell-based, Staphylococcus aureus; conditions: 18 h, read-out: MRSA MIC
[10] = MC^2155, M. smegmatis, 24 h, 37°C
[11] = M. tuberculosis H37Rv, 5 days, 37°C
[12] = U937 cells, 72 h, read-out: U937 IC50 ± SD
[13] = Chlorocebus sabaeus, Vero, Vero cells
[14] = Staphylococcus aureus, MRSA, S. aureus AH1263/LAC

Row | Compound | MIC [1, 10] [µM] | minimal effective concentration [2] [µM] | minimal effective concentration ([3]; S. aureus AH1263/LAC biofilm) [µM] | MIC [7, 11] [µM] | IC50 [5, 12] [µM] | IC50 [6, 13] [µM] | MIC ([8]; S. aureus UAMS‐1, 18 h) [µM] | MIC [9, 14] [µM] | other results
1 | O=C(O)c1cn(C2CC2)c2cc(N3CCNCC3)c(F)cc2c1=O [Ciprofloxacin, reference compound] | 0.6 (≈ 0.199 µg/mL) | 0.325 | 1 | – | – | – | – | – | minimal effective concentration ([4]; S. aureus UAMS‐1 biofilm): 2 µM
2 | Cc1c2oc3c(C)ccc(C(=O)N[C@@H]4C(=O)N[C@H](C(C)C)C(=O)N5CCC[C@H]5C(=O)N(C)CC(=O)N(C)[C@@H](C(C)C)C(=O)O[C@@H]4C)c3nc-2c(C(=O)N[C@@H]2C(=O)N[C@H](C(C)C)C(=O)N3CCC[C@H]3C(=O)N(C)CC(=O)N(C)[C@@H](C(C)C)C(=O)O[C@@H]2C)c(N)c1=O [Actinomycin D, reference compound] (I: T[dV]P[Sar][NMeV] / II: T[dV]P[Sar][NMeV]; ester I:1-I:C, II:1-II:C; linker I:N-II:N via Actinocin(9to1)) | – | – | – | – | – | – | – | – | IC50 ([5]; read-out: U937 IC50 ± SD): 0.002 µM; IC50 ([6]; Chlorocebus sabaeus, Vero): 0.02 µM
3 | CC(C)CCOC(=O)c1ccc2cccc(OCCC(C)C)c2n1 [QD‐11, isopentyl 8‐(isopentyloxy)quinoline‐2‐carboxylate] | > 100 | > 100 | – | 100 (≈ 32.9 µg/mL) | > 100 | 70.4 ± 3.99 | 389 (≈ 128 µg/mL) | 389 (≈ 128 µg/mL) | –
4 | CN[C@H](CC(C)C)C(=O)N[C@H]1C(=O)N[C@@H](CC(N)=O)C(=O)N[C@H]2C(=O)N[C@H]3C(=O)N[C@H](C(=O)N[C@H](C(=O)O)c4cc(O)cc(O)c4-c4cc3ccc4O)[C@H](O)c3ccc(c(Cl)c3)Oc3cc2cc(c3O[C@@H]2O[C@H](CO)[C@@H](O)[C@H](O)[C@H]2O[C@H]2C[C@](C)(N)[C@H](O)[C@H](C)O2)Oc2ccc(cc2Cl)[C@H]1O [Vancomycin, reference compound] | – | – | – | – | – | – | – | – | MIC ([8]; 18 h): 1 µM (≈ 1.45 µg/mL); MIC ([9]; Staphylococcus aureus, MRSA): 1 µM (≈ 1.45 µg/mL)
5 | Cc1ccc2c(Cl)cc(Cl)c(O)c2n1 [HQ‐2, 5,7‐dichloro‐8‐hydroxy‐2‐methylquinoline, reference compound] | 1.56 (≈ 0.356 µg/mL) | 3.13 | 35.2 | 0.1 (≈ 0.0228 µg/mL) | – | < 100 | 2.2 (≈ 0.502 µg/mL) | 1.1 (≈ 0.251 µg/mL) | IC50 ([6]; Vero cells): 82.8 ± 7.09 µM; minimal effective concentration ([4]; S. aureus UAMS‐1 biofilm): 17.6 µM
6 | Cc1ccc2cccc(OCCC(C)C)c2n1 [QD‐8] | > 100 | 100 | – | 100 (≈ 22.9 µg/mL) | > 100 | > 100 | 559 (≈ 128 µg/mL) | – | –
7 | CC(C)=CCOc1c(Cl)cc(Cl)c2ccc(C)nc12 [QD‐6] | > 100 | > 100 | 256 | 100 (≈ 29.6 µg/mL) | > 100 | > 100 | – | – | –
8 | Oc1cccc2cccnc12 [HQ‐1, 8‐hydroxyquinoline, reference compound] | – | – | – | – | – | – | – | – | MIC ([1]; MC^2155, 24 h): 3.13 µM (≈ 0.454 µg/mL); MIC [7]: 1 µM (≈ 0.145 µg/mL); MIC ([8]; 18 h): 13.8 µM (≈ 2 µg/mL); minimal effective concentration [3]: 6.9 µM; MIC ([9]; S. aureus AH1263/LAC): 6.90 µM (≈ 1 µg/mL); MIC ([9]; Staphylococcus aureus, MRSA): 6.9 µM (≈ 1 µg/mL); minimal effective concentration [4]: 13.8 µM
9 | Cc1onc(-c2ccccc2)c1C(=O)N[C@@H]1C(=O)N2[C@@H]1SC(C)(C)[C@@H]2C(=O)O [Oxacillin, reference compound] | – | – | – | – | – | – | 1 (≈ 0.401 µg/mL) | 64 (≈ 25.7 µg/mL) | –
10 | CCCCCOc1c(Cl)cc(Cl)c2ccc(C)nc12 [QD‐4] | > 100 | > 100 | – | > 100 | > 100 | > 100 | – | – | –
11 | Cc1ccc2c(Cl)cc(Cl)c(OCCC(C)C)c2n1 [QD‐5] | > 100 | > 100 | – | > 100 | > 100 | > 100 | – | – | –
12 | CCCCCOC(=O)c1ccc2cccc(OCCCCC)c2n1 [QD‐10, pentyl 8‐(pentyloxy)quinoline‐2‐carboxylate] | > 100 | > 100 | – | 100 (≈ 32.9 µg/mL) | 69.48 ± 0.16 | 84.8 ± 3.42 | 389 (≈ 128 µg/mL) | 389 (≈ 128 µg/mL) | –
13 | Cc1ccc2cccc(O)c2n1 [HQ‐3, 2‐methyl‐8‐hydroxyquinoline, reference compound] | – | – | – | – | – | – | – | – | MIC ([1]; MC^2155, 24 h): 6.25 µM (≈ 0.995 µg/mL); MIC [7]: 1 µM (≈ 0.159 µg/mL); IC50 ([5]; read-out: U937 IC50 ± SD, U937 cells, 72 h): > 100 µM; IC50 ([6]; Chlorocebus sabaeus, Vero): > 100 µM; MIC ([8]; 18 h): 201 µM (≈ 32 µg/mL); minimal effective concentration [3]: 201 µM; MIC ([9]; Staphylococcus aureus, MRSA): 101 µM (≈ 16 µg/mL); minimal effective concentration [4]: 101 µM
14 | NNC(=O)c1ccncc1 [Isoniazid, reference compound] | – | – | – | 0.3 (≈ 0.0411 µg/mL) | – | – | – | – | –
15 | CC(C)=CCOc1cccc2ccc(C)nc12 [QD‐9] | > 100 | > 100 | – | 100 (≈ 22.7 µg/mL) | > 100 | > 100 | – | – | –
16 | CC(C)=CCOc1cccc2cccnc12 [QD‐3] | > 100 | 100 | 601 | 100 (≈ 21.3 µg/mL) | 83.83 ± 0.8 | > 100 | 300 (≈ 64.1 µg/mL) | 300 (≈ 64.1 µg/mL) | minimal effective concentration ([4]; S. aureus UAMS‐1 biofilm): 601 µM
17 | CC(C)=CCOc1cccc2ccc(C=O)nc12 [QD‐12] | 100 (≈ 24.1 µg/mL) | 12.5 | 266 | 100 (≈ 24.1 µg/mL) | > 100 | > 100 | 266 (≈ 64.1 µg/mL) | 133 (≈ 32 µg/mL) | minimal effective concentration ([4]; S. aureus UAMS‐1 biofilm): 531 µM
18 | CCCCCOc1cccc2ccc(C)nc12 [QD‐7] | > 100 | > 100 | – | 100 (≈ 22.9 µg/mL) | > 100 | > 100 | 1120 (≈ 256 µg/mL) | 1120 (≈ 256 µg/mL) | –
19 | CC(C)CCOc1cccc2cccnc12 [QD‐2] | > 100 | > 100 | 1190 | > 100 | > 100 | > 100 | – | 1190 (≈ 256 µg/mL) | minimal effective concentration ([4]; S. aureus UAMS‐1 biofilm): 1190 µM
